Data from PubChem BioAssay (NCI).
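Five concentrations, 48 hours, 96-well plates. The concentration for full growth arrest is given as TGI.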

Experiments:
Assay in all cases: NCI-60 cell line screen, 48 h
TK-10 renal = tested on: TK-10 renal
IGROV1 ovarian = tested on: IGROV1 ovarian
HCT-15 colon = tested on: HCT-15 colon
HL-60(TB) leukemia = tested on: HL-60(TB) leukemia
SN12C renal = tested on: SN12C renal
ACHN renal = tested on: ACHN renal
A549 NSCLC = tested on: A549 NSCLC
SF-295 CNS = tested on: SF-295 CNS
OVCAR-8 ovarian = tested on: OVCAR-8 ovarian
SF-268 CNS = tested on: SF-268 CNS
COLO 205 colon = tested on: COLO 205 colon
MALME-3M melanoma = tested on: MALME-3M melanoma
SK-OV-3 ovarian = tested on: SK-OV-3 ovarian
OVCAR-4 ovarian = tested on: OVCAR-4 ovarian
SK-MEL-28 melanoma = tested on: SK-MEL-28 melanoma
U251 CNS = tested on: U251 CNS
HCC-2998 colon = tested on: HCC-2998 colon
NCI-H23 lung = tested on: NCI-H23 lung
SNB-75 CNS = tested on: SNB-75 CNS
DMS 114 small cell lung = tested on: DMS 114 small cell lung
SK-MEL-5 melanoma = tested on: SK-MEL-5 melanoma
MOLT-4 leukemia = tested on: MOLT-4 leukemia
NCI-H522 lung = tested on: NCI-H522 lung
HOP-92 NSCLC = tested on: HOP-92 NSCLC
M14 melanoma = tested on: M14 melanoma
NCI-H460 lung = tested on: NCI-H460 lung
OVCAR-5 ovarian = tested on: OVCAR-5 ovarian
LOX IMVI melanoma = tested on: LOX IMVI melanoma
OVCAR-3 ovarian = tested on: OVCAR-3 ovarian
CCRF-CEM leukemia = tested on: CCRF-CEM leukemia
HT29 colon = tested on: HT29 colon
M19-MEL melanoma = tested on: M19-MEL melanoma
UACC-257 melanoma = tested on: UACC-257 melanoma
LXFL 529 NSCLC = tested on: LXFL 529 NSCLC
SF-539 CNS = tested on: SF-539 CNS
SR leukemia = tested on: SR leukemia
NCI-H226 lung = tested on: NCI-H226 lung
A498 renal = tested on: A498 renal
DLD-1 colon = tested on: DLD-1 colon
HCT-116 colon = tested on: HCT-116 colon
HOP-62 NSCLC = tested on: HOP-62 NSCLC
RPMI-8226 leukemia = tested on: RPMI-8226 leukemia
KM12 colon = tested on: KM12 colon
786-0 renal = tested on: 786-0 renal
DMS 273 small cell lung = tested on: DMS 273 small cell lung
KM20L2 colon = tested on: KM20L2 colon
SK-MEL-2 melanoma = tested on: SK-MEL-2 melanoma
UO-31 renal = tested on: UO-31 renal
RXF 393 renal = tested on: RXF 393 renal
PC-3 prostate = tested on: PC-3 prostate
SW-620 colon = tested on: SW-620 colon
DU-145 prostate = tested on: DU-145 prostate
K-562 leukemia = tested on: K-562 leukemia
SNB-19 CNS = tested on: SNB-19 CNS
CAKI-1 renal = tested on: CAKI-1 renal
T-47D breast = tested on: T-47D breast
BT-549 breast = tested on: BT-549 breast
EKVX NSCLC = tested on: EKVX NSCLC
UACC-62 melanoma = tested on: UACC-62 melanoma
MDA-MB-435 = tested on: MDA-MB-435
MCF7 breast = tested on: MCF7 breast
MDA-MB-231 breast = tested on: MDA-MB-231 breast
HS 578T breast = tested on: HS 578T breast
MDA-N = tested on: MDA-N
NCI/ADR-RES ovarian = tested on: NCI/ADR-RES ovarian

Measured: TGI

N#CNC(N)=NCc1ccccc1
not listed: RXF 393 renal | PC-3 prostate | SW-620 colon | DU-145 prostate | K-562 leukemia | SNB-19 CNS | CAKI-1 renal | T-47D breast | BT-549 breast | EKVX NSCLC | UACC-62 melanoma | MDA-MB-435 | MCF7 breast | MDA-MB-231 breast | HS 578T breast | MDA-N | NCI/ADR-RES ovarian
> 100 µM: all other assays above

CN(C)CCN(c1ccccn1)c1ccccn1
not listed: DMS 114 small cell lung | M19-MEL melanoma | LXFL 529 NSCLC | DLD-1 colon | DMS 273 small cell lung | KM20L2 colon
> 100 µM: all other assays above

O=CC(I)=C(c1ccccc1)c1ccccc1
27.3 µM: OVCAR-4 ovarian
31.9 µM: SK-MEL-5 melanoma | MCF7 breast
41.8 µM: A498 renal
46.9 µM: NCI-H23 lung
31.8 µM: SK-MEL-28 melanoma
33.4 µM: SK-MEL-2 melanoma
29.9 µM: SK-OV-3 ovarian
44.8 µM: TK-10 renal
28.9 µM: 786-0 renal
> 69.9 µM: CCRF-CEM leukemia
29.1 µM: UO-31 renal
31.4 µM: MDA-MB-435
32.8 µM: NCI-H460 lung
57 µM: NCI-H226 lung
32.3 µM: NCI-H522 lung
38.6 µM: HL-60(TB) leukemia
36.1 µM: A549 NSCLC
29 µM: MDA-MB-231 breast
30.4 µM: CAKI-1 renal
40.7 µM: OVCAR-5 ovarian
28.7 µM: KM12 colon
> 56.8 µM: SF-268 CNS
30.1 µM: SNB-19 CNS
35.8 µM: HCC-2998 colon
19.9 µM: SW-620 colon
72.3 µM: MOLT-4 leukemia
34.9 µM: T-47D breast
29.4 µM: HT29 colon
30 µM: BT-549 breast
35.2 µM: M14 melanoma
31.6 µM: SF-295 CNS
> 59 µM: RPMI-8226 leukemia
32.4 µM: COLO 205 colon
45.1 µM: NCI/ADR-RES ovarian
53.8 µM: OVCAR-8 ovarian
45.3 µM: SN12C renal | SF-539 CNS
36 µM: EKVX NSCLC
27.2 µM: HCT-116 colon
37.5 µM: IGROV1 ovarian
> 52.7 µM: SNB-75 CNS
30.8 µM: MALME-3M melanoma
38.1 µM: ACHN renal | HOP-92 NSCLC
63 µM: HS 578T breast
27.9 µM: SR leukemia
34.5 µM: UACC-62 melanoma
42.3 µM: UACC-257 melanoma
32 µM: HOP-62 NSCLC
28.4 µM: HCT-15 colon
35.4 µM: MDA-N
17.7 µM: OVCAR-3 ovarian
32.7 µM: DU-145 prostate
28.6 µM: LOX IMVI melanoma
30.2 µM: U251 CNS
> 71 µM: K-562 leukemia
41.4 µM: RXF 393 renal
29.3 µM: PC-3 prostate

Cn1c2ccccc2c2ccc3c(c21)C(=O)c1ccc2c4ccccc4n(C)c2c1C3=O
not listed: DMS 114 small cell lung | M19-MEL melanoma | LXFL 529 NSCLC | DLD-1 colon | DMS 273 small cell lung | KM20L2 colon
> 100 µM: all other assays above
